For 1 molecule, melting point results are on record in patent publication US7612055B2, “Macrocyclic lactams and pharmaceutical use thereof” (Novartis AG, priority 2003, dated 2009).

One may read the melting point as the temperature, or range, at which the solid turns liquid. `CCCCNC(=O)C(C)CC(O)C1C[C@H](C)CCCCCCNc2cc(cc(OC)n2)C(=O)N1` (stereo partly drawn) [Example 11, N-Butyl-4-hydroxy-4-((9R)-16-methoxy-9-methyl-13-oxo-2,12,17-triaza-bicyclo[12.3.1]octadeca-1(17),14(18),15-trien-11-yl)-2-methyl-butyramide]: the melting point is 178 to 182 °C.
